Test results: the SangsterLogP compilation

assay: method code SF, from DOI: 10.1016/j.ejps.2005.05.001, PMID: 15955679; conditions: not given

logP	Structure (SMILES)
2.1	O=C(c1ccccc1)c1cc2c([nH]c1=O)CCCC2
1.76	O=c1[nH]c2c(cc1S(=O)(=O)c1ccccc1)CCCC2
1.74	CC(=O)c1ccc(-c2ccccc2)[nH]c1=O

same assay, conditions: pH 7.4

logD	Structure (SMILES)
-0.3	CC(=O)c1ccc(=O)[nH]c1C

assay: not given; conditions: not given

Structure (SMILES)	logP
COC(=O)c1cc(C(C)=O)c(C)[nH]c1=O	-0.09
CC(=O)c1cc(C(=O)O)c(=O)[nH]c1C	-0.04
Cc1[nH]c(=O)c(C#N)cc1C(=O)OCC(C)C	1.78

Results, then the molecule that gave them:

logP	Structure (SMILES)
-0.13	Cc1ccc(C#N)c(=O)[nH]1
0.3	N#Cc1ccc(-c2ccccn2)[nH]c1=O
0.15	Cc1[nH]c(=O)c(C#N)cc1C(=O)O
0.65	CCOC(=O)c1cc(C#N)c(=O)[nH]c1C
0.05	N#Cc1ccc(-c2cccnc2)[nH]c1=O
0.02	N#Cc1ccc(-c2ccncc2)[nH]c1=O
